Measurements as given in PMC9663578, “A fluorogenic probe for predicting treatment response in non-small cell lung cancer with EGFR-activating mutations” (Nature Communications, 2022).
Where “and” joins values, the source holds several entries; their conditions need not be identical. Equal entries are not always repeated.

What was measured:
A431 cells = assay: FACS assay in cultured cells; conditions: for HX103 dose-dependent signal (Supplementary Fig. 18): 20 µM = 100
Procedure: Briefly, the cultured cells were seeded on the petri dish and counted using Count star BioMed automated cell counter. Around 10^6 live-cells were collected and were pelleted (2000×g, 3 min), followed by washing with PBS (2x). Cells were then resuspended in PBS buffer containing 0.1% BSA (1 × 10^6 cells/mL). […] The cell suspension was resuspended in PBS and analyzed with a FACSVerse^TM flow cytometer (BD Biosciences, LSRFortessa). About 10,000 events per tube were analyzed and the mean fluorescence intensity was detected and analyzed.
For the FACS assay with EGFR antibody, around 10^6 live-cells were collected and washed with PBS (2x). The cells were fixed by 400 µL 4% paraformaldehyde for 15 min at room temperature, followed by permeabilization with 0.1% Triton X-100 for 10 min and blocking with 5% BSA for 30 min. […] The cells were then washed with 0.5% BSA/PBS (3x) and resuspended in 400 µL of 0.1% BSA/PBS. […] The resuspended cell suspension was then analyzed on a FACSVerseTM flow cytometer (BD Biosciences, LSRFortessa). Nonspecific fluorescence binding was omitted by Rabbit mAb IgG isotype control (#3900, CST, 1:100) and the corresponding mean fluorescence was subtracted from the signal measured with each primary antibody. About 10,000 events per tube were analyzed and the mean fluorescence intensity was detected and analyzed.
Subsequently, the treated cells were incubated for 30 min at 37 °C, followed by washing with PBS buffer three times. […] Finally, the co-stained cells were washed with 0.5% BSA/PBS for three times and resuspended in 400 µL of 0.1% BSA/PBS. The obtained cell suspension was ready for analysis. Nonspecific fluorescence binding was omitted by Rabbit mAb IgG isotype control (#3900, CST, 1:100) as described above.
Nonspecific fluorescence binding was omitted by Rabbit mAb IgG isotype control (#3900, CST, 1:100). […] After incubation for another 30 min at room temperature, the co-stained cells were washed with 0.5% BSA/PBS for three times and resuspended in 400 µL of 0.1% BSA/PBS. The obtained cell suspension was ready for analysis. Nonspecific fluorescence binding was omitted by Rabbit mAb IgG isotype control (#3900, CST, 1:100) as described above.
The cells were seeded on the petri dish and cultured at the normal condition with 10% FBS, and that was changed to serum-free condition for 24 h when the cells proliferated at ~80% confluence. […] Nonspecific fluorescence binding was omitted by Rabbit mAb IgG isotype control (#3900, CST, 1:100) as described above.

EGFR T790M = molecular target: T1, EGFR T790M (Homo sapiens, UniProt P00533, T790M); assay: Fluorescence turn-on response / titration of HX103 with recombinant EGFR;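 as to Fluorescence intensity at 570 nm: 100% is HX103 fluorescence with wild-type EGFR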; assay type: binding; conditions: for Fluorescence intensity, T790M: Fig. 2c; for Fluorescence response of HX103 to EGFR T790M: Supplementary Fig. 2f
T1 construct: EGFR T790M (amino acids 668–1210, #PR8052A); purchased Thermo Fisher PR8052A
Procedure: (d) Fluorescence spectra change of HX103 (5 µ M) with increasing concentration of EGFR L858R
(e) Fluorescence spectra change of HX103 (5 µ M ) with
increasing concentration of EGFR 19del (0 to 6 µM) in PBS buffer. (f) Titration curve of HX103
(5 µM) with increasing concentration of EGFRs (0 to 6 µM). The apparent binding affinity (Kd)
The fluorescence titration curve was fitted on one -
site specific binding model. I and I0 represent the intensities of HX103 at 570 nm in the presence
and absence of protein. Data represent average val ues ± SD, n = 3 independent experiments per
solution was diluted in sodium phosphate buffer (PBS, 1 M, pH=7.4) to obtain the desired final
Data analysis：The obtained fluorescence intensity at 570 nm (Excitation wavelength was 440
was set at 100% to normalized that of the remaining samples.

[1] = Measurement of optical properties; assay type: physicochemical; conditions: for Fluorescence intensity, HX103 only: Fig. 2a
Procedure: page 66: […] Measurement of optical properties In the study, UV-vis spectra of the probes were determined on a Hitachi U-2910. The fluorescence spectroscopic experiments were performed on BioTek microplate reader and Horiba Jobin Yvon - Edison Fluoromax-4. Absolute fluorescence quantum efficiency was measured by an absolute quantum yield spectrometer (Horiba Jobin Yvon-Edison Fluoromax-4). The tested probe was dissolved in dimethyl sulfoxide (DMSO) to obtain stock solutions (10 mM). The prepared stock […] concentration solution, containing 0.1% (v/v) DMSO as a cosolvent. For the in vitro kinase […] The excitation and emission fluorescence spectra of the solution before/after addition o f different concentration […] Data analysis:The obtained fluorescence intensity at 570 nm (Excitation wavelength was 440 nm) in each sample was normalized by using the fluorescence intensity of HX103 in the presence of EGFR. Specifically, the fluorescence intensity of HX103 in the presence of EGFR wild-type […] 66

## COc1cc2c(Nc3ccc(F)c(Cl)c3)ncnc2cc1OCCCNc1ccc(S(=O)(=O)N(C)C)c2nonc12 [HX103]
A431 cells; A431, HX103 1.1 µM
  HX103 dose-dependent signal (Supplementary Fig. 18): 27.0427 and 32.7871 and 29.9049
A431 cells; A431, HX103 3.3 µM
  HX103 dose-dependent signal (Supplementary Fig. 18): 44.6928 and 49.6432 and 47.158
A431 cells; A431, HX103 10 µM
  HX103 dose-dependent signal (Supplementary Fig. 18): 77.4475 and 86.2684 and 81.868
A431 cells; A431, HX103 15 µM
  HX103 dose-dependent signal (Supplementary Fig. 18): 96.5825 and 89.3875 and 92.975
A431 cells; A431, HX103 20 µM
  HX103 dose-dependent signal (Supplementary Fig. 18): 100
A431 cells; A431, HX103 alone or with Gefitinib, replicates n=1-3
  HX103 signal (Supplementary Fig. 7): 114.212 and 76.0875 and 109.7
A431 cells; A431, replicates n=1-3
  EGFR(+) HX103 (+) (%): 55.07% and 64.605% and 66.64%
  HX103(+) (%): 96.31% and 66.39% and 64.52%
A431 cells; HX103 5 µM, 30 min, replicates n=1-3
  normalized MFI of HX103 labeling: 83.2618% and 101.288% and 92.2747%
A431 cells; HX103 5 µM, replicates n=1-3
  EGFR(+) HX103 (+) (%): ~ 60% and 64.605% and 66.64% and 55.07%
EGFR T790M; wavelength 666 nm
  Fluorescence intensity, T790M: 2748.26
EGFR T790M; wavelength 669 nm
  Fluorescence intensity, T790M: 2609.98
EGFR T790M; wavelength 671 nm
  Fluorescence intensity, T790M: 2444.87
EGFR T790M; wavelength 673 nm
  Fluorescence intensity, T790M: 2257.89
EGFR T790M; wavelength 676 nm
  Fluorescence intensity, T790M: 2067.13
EGFR T790M; wavelength 678 nm
  Fluorescence intensity, T790M: 1891.35
EGFR T790M; wavelength 681 nm
  Fluorescence intensity, T790M: 1749.2
EGFR T790M; wavelength 683 nm
  Fluorescence intensity, T790M: 1648.24
EGFR T790M; wavelength 686 nm
  Fluorescence intensity, T790M: 1577.34
EGFR T790M; wavelength 688 nm
  Fluorescence intensity, T790M: 1523.55
EGFR T790M; wavelength 690 nm
  Fluorescence intensity, T790M: 1473.92
EGFR T790M; wavelength 693 nm
  Fluorescence intensity, T790M: 1419.2
EGFR T790M; wavelength 695 nm
  Fluorescence intensity, T790M: 1359.54
EGFR T790M; wavelength 698 nm
  Fluorescence intensity, T790M: 1296.59
EGFR T790M; wavelength 700 nm
  Fluorescence intensity, T790M: 1231.99
EGFR T790M; Fig. 2d, HX103 with EGFR T790M, n=1-3
  Fluorescence intensity at 570 nm: 62.6243 and 56.177 and 61.7341
EGFR T790M; HX103 5 µM in PBS buffer (0.1% DMSO), 570 nm
  fluorescence turn-on response: relatively low fluorescence
EGFR T790M; HX103 5 µM, EGFR 0 to 6 µM in PBS, one-site specific binding model, read-out: apparent binding affinity (Kd)
  Kd: 6.6 ± 4.6 µM
EGFR T790M; EGFR 0.1 µM, n=1-3
  Fluorescence response of HX103 to EGFR T790M: 0.8143 and 0.8764 and 0.5043
EGFR T790M; EGFR 0.5 µM, n=1-3
  Fluorescence response of HX103 to EGFR T790M: 1.381 and 1.689 and 1.392
EGFR T790M; EGFR 1 µM, n=1-3
  Fluorescence response of HX103 to EGFR T790M: 1.713 and 2.039 and 1.744
EGFR T790M; EGFR 6 µM, n=1-3
  Fluorescence response of HX103 to EGFR T790M: 6.037 and 7.198 and 5.58
[1]
  Stokes shift: 130 nm
  excitation maximum: 340/440
[1]; DMSO
  absolute quantum yield: 42.4%
  maximum UV absorption: 342/438
[1]; wavelength 666 nm
  Fluorescence intensity, HX103 only: 328.882
[1]; wavelength 669 nm
  Fluorescence intensity, HX103 only: 313.191
[1]; wavelength 671 nm
  Fluorescence intensity, HX103 only: 290.291
[1]; wavelength 673 nm
  Fluorescence intensity, HX103 only: 261.813
[1]; wavelength 676 nm
  Fluorescence intensity, HX103 only: 236.251
[1]; wavelength 678 nm
  Fluorescence intensity, HX103 only: 222.471
[1]; wavelength 681 nm
  Fluorescence intensity, HX103 only: 229.28
[1]; wavelength 683 nm
  Fluorescence intensity, HX103 only: 261.184
[1]; wavelength 686 nm
  Fluorescence intensity, HX103 only: 315.405
[1]; wavelength 688 nm
  Fluorescence intensity, HX103 only: 388.462
[1]; wavelength 690 nm
  Fluorescence intensity, HX103 only: 476.875
[1]; wavelength 693 nm
  Fluorescence intensity, HX103 only: 577.288
[1]; wavelength 695 nm
  Fluorescence intensity, HX103 only: 686.662
[1]; wavelength 698 nm
  Fluorescence intensity, HX103 only: 802.01
[1]; wavelength 700 nm
  Fluorescence intensity, HX103 only: 920.343
[1]; Fig. 2b, HX103 alone, n=1-3
  Fluorescence intensity at 570 nm: 8.2448 and 8.538 and 6.65
[1]; PBS
  absolute quantum yield: 5.8%
[1]; excitation at 440 nm
  fluorescence emission wavelength: 570 nm
